# Patent US20080145858A1, “DETECTION AND IDENTIFICATION OF TOXICANTS BY MEASUREMENT OF GENE […]” (priority 2003, published 2008)
# Marks after values point to notes of the source that are not given here.
# System: Xenopus laevis neurulation stage embryos (stage 15)
# Assay: Xenopus cDNA microarray, differential gene expression after PMA treatment during neurulation (Group II)
# Type: in vivo
# Conditions: PMA, stage 15
# Excerpt: Specifically, the method and screen of the present invention function as follows. EST clones produced from Xenopus laevis unfertilized eggs were used in the present study with ˜1,200 EST clones from a 18,500 EST clone set selected for production of a Xenopus cDNA microarray. The Xenopus microarray was used to measure the effect of chemical treatment on Xenopus embryo gene regulation. The chemical treatment was a phorbol ester, PMA. Xenopus eggs were obtained from females induced for ovulation and fertilized in vitro. Control Xenopus laevis embryos were allowed to develop to stage 8 blastula or stage 15 neurula. Treated embryos were exposed to PMA during cleavage stage or during neurulation with end points of blastula (stage 8) or neurula (stage 15). Specifically, PMA 100 ng/ml was added to the incubation media during cleavage stages for evaluation in stage 8 embryo or PMA was added during neural induction for evaluation in stage 15 embryos. RNA extracted from the embryos was used to generate fluorescent cDNA probes for Xenopus microarray analyses to measure differential gene expression with and without the phorbol ester treatment. Analysis was performed using paired RNA samples to compare PMA-treated and untreated embryos: Group I measured the effects of PMA-treatment during the cleavage stage in stage 8 embryos and Group II measured the effects of PMA-treatment during neurulation in stage 15 embryos. Group III measured the change in gene expression between stage 8 and stage 15 embryos.
# cDNA fragments were obtained by PCR replication of Xenopus laevis unfertilized egg cDNA inserts, purified, quantitated and loaded onto glass chips by robotics. In addition to the selected ˜1,200 genes, 64 lambda Q gene, an internal control cDNA (Genomic Solutions, Inc., Ann Arbor, Mich.) was loaded on the chip. The insert DNA from ˜1,200 clones were PCR amplified using forward and reverse primers (GF.200 primers, Research Genetics, Huntsville, Ala.). A second PCR was carried out using 1 μl of the primary PCR (20 μl) for template. Excess dNTPs, polymerase and other PCR artifacts were removed from the secondary PCR reactions using Millipore Multiscreen plates (Millipore Corporation, Bedford, Mass.) using the standard protocol. The purity of the PCR products was assessed by electrophoresis and documented using an Alphalmager 1000 Digital Imaging System (Alpha Innotech Corporation, San Leandro, Calif.). The DNA obtained by PCR was quantitated using PicoGreen (Molecular Probes, Eugene, Oreg.). The DNA was denatured and arrayed onto amino-silane coated microscope slides (CMT-GAPS coated slides, Corning, Corning, N.Y.) using a Flexys robotic workstation (Genomic Solutions Inc.). The ˜1,200 PCR products were arrayed in duplicate on each slide and cross-linked. Each gene chip contained duplicate cDNA samples.
# Total RNA was prepared from embryos treated in three separate dishes per treatment group that were pooled. Total RNA was isolated from the frog embryos (1,200 embryos for each probe production) using TRIzol extraction (Gibco BRL, Grand Island, N.Y.) and Qiagen RNeasy kits (Qiagen, Valencia, Calif.). The ethanol precipitated RNA was resuspended in RNase-free water, quantitated with RiboGreen (Molecular Probes, Eugene, Oreg.). Total RNA was further purified using oligoTex mRNA maxi kit (Qiagen Co.) with the bound mRNA eluted with minimum volume of elution buffer and precipitated with ethanol. The recovery rate of mRNA by the ethanol precipitation method was ˜70%. Cy3- or Cy5-tagged probes were produced from an mRNA mixture (20 μl) of Xenopus mRNA (5 μg) and lambda Q gene mRNA (3.5 ng) reverse-transcribed with oligo(dT)18-22 primer and dNTPs and the reverse-transcribed cDNA was cross-linked with Cy3 or Cy5 as described in Clontech Atlas™ Glass Fluorescent Labeling kit manual (www.clontech.com). After hydrolysis of the RNA and purification of the probe (Centricon 50, Millipore, Bedford, Mass.), the cDNA in TE buffer was quantitated by absorbance at 260 nm. […]
smiles,measurement,setting,value
"CCCCCCCCCCCCCC(=O)O[C@@H]1[C@@H](C)[C@@]2(O)[C@@H](C=C(CO)C[C@]3(O)C(=O)C(C)=C[C@@H]23)[C@@H]2C(C)(C)[C@]12OC(C)=O [PMA, phorbol 12-myristate 12-acetate]",Cy3/Cy5 by Landmarks (0.25),PBX0135G07 mRNA,3.95
same,Cy3/Cy5 by all Data Points (0.469),PBX0135G07 mRNA,2.11
same,Normalized by Landmarks (0.25),PBX0135G07 mRNA,0.253
same,Normalized by all Data Points (0.469),PBX0135G07 mRNA,0.474
same,Ratio of Medians (Cy5/Cy3) First Spot,PBX0135G07 mRNA,0.98
same,Ratio of Medians (Cy5/Cy3) Mean,PBX0135G07 mRNA,1.01 ± 0.03 ^a
same,Ratio of Medians (Cy5/Cy3) Second Spot,PBX0135G07 mRNA,1.04
same,Cy3/Cy5 by Landmarks (0.25),PBX0135H08 mRNA,4.93
same,Cy3/Cy5 by all Data Points (0.469),PBX0135H08 mRNA,2.63
same,Normalized by Landmarks (0.25),PBX0135H08 mRNA,0.203
same,Normalized by all Data Points (0.469),PBX0135H08 mRNA,0.380
same,Ratio of Medians (Cy5/Cy3) First Spot,PBX0135H08 mRNA,0.78
same,Ratio of Medians (Cy5/Cy3) Mean,PBX0135H08 mRNA,0.81 ± 0.03 ^a
same,Ratio of Medians (Cy5/Cy3) Second Spot,PBX0135H08 mRNA,0.84
same,Normalized by Landmarks (0.25),PBX 0136C09 mRNA,1.53
same,Normalized by all Data Points (0.469),PBX 0136C09 mRNA,2.87
same,Ratio of Medians (Cy5/Cy3) First Spot,PBX 0136C09 mRNA,4.19
same,Ratio of Medians (Cy5/Cy3) Mean,PBX 0136C09 mRNA,6.12 ± 1.93 ^a
same,Ratio of Medians (Cy5/Cy3) Second Spot,PBX 0136C09 mRNA,8.05
same,Normalized by Landmarks (0.25),PBX 0136C12 mRNA,1.51
same,Normalized by all Data Points (0.469),PBX 0136C12 mRNA,2.82
same,Ratio of Medians (Cy5/Cy3) First Spot,PBX 0136C12 mRNA,5.29
same,Ratio of Medians (Cy5/Cy3) Mean,PBX 0136C12 mRNA,6.02 ± 0.73 ^a
same,Ratio of Medians (Cy5/Cy3) Second Spot,PBX 0136C12 mRNA,6.75
same,Normalized by Landmarks (0.25),PBX 0136F03 mRNA,1.54
same,Normalized by all Data Points (0.469),PBX 0136F03 mRNA,2.90
same,Ratio of Medians (Cy5/Cy3) First Spot,PBX 0136F03 mRNA,3.67
same,Ratio of Medians (Cy5/Cy3) Mean,PBX 0136F03 mRNA,6.18 ± 2.5 ^a
same,Ratio of Medians (Cy5/Cy3) Second Spot,PBX 0136F03 mRNA,8.68
same,Normalized by Landmarks (0.25),PBX 0136G06 mRNA,1.36
same,Normalized by all Data Points (0.469),PBX 0136G06 mRNA,2.54
same,Ratio of Medians (Cy5/Cy3) First Spot,PBX 0136G06 mRNA,4.95
same,Ratio of Medians (Cy5/Cy3) Mean,PBX 0136G06 mRNA,5.42 ± 0.47 ^a
same,Ratio of Medians (Cy5/Cy3) Second Spot,PBX 0136G06 mRNA,5.89
same,Normalized by Landmarks (0.25),PBX 0136G08 mRNA,1.36
same,Normalized by all Data Points (0.469),PBX 0136G08 mRNA,2.54
same,Ratio of Medians (Cy5/Cy3) First Spot,PBX 0136G08 mRNA,4.48
same,Ratio of Medians (Cy5/Cy3) Mean,PBX 0136G08 mRNA,5.43 ± 0.94 ^a
same,Ratio of Medians (Cy5/Cy3) Second Spot,PBX 0136G08 mRNA,6.37
same,Cy3/Cy5 by Landmarks (0.25),PBX0137F04 mRNA,3.70
same,Cy3/Cy5 by all Data Points (0.469),PBX0137F04 mRNA,1.97
same,Normalized by Landmarks (0.25),PBX0137F04 mRNA,0.270
same,Normalized by all Data Points (0.469),PBX0137F04 mRNA,0.507
same,Ratio of Medians (Cy5/Cy3) First Spot,PBX0137F04 mRNA,0.95
same,Ratio of Medians (Cy5/Cy3) Mean,PBX0137F04 mRNA,1.08 ± 0.13 ^a
same,Ratio of Medians (Cy5/Cy3) Second Spot,PBX0137F04 mRNA,1.21
same,Normalized by Landmarks (0.25),PBX 0138E11 mRNA,1.57
same,Normalized by all Data Points (0.469),PBX 0138E11 mRNA,2.95
same,Ratio of Medians (Cy5/Cy3) First Spot,PBX 0138E11 mRNA,5.02
same,Ratio of Medians (Cy5/Cy3) Mean,PBX 0138E11 mRNA,6.29 ± 1.27 ^a
same,Ratio of Medians (Cy5/Cy3) Second Spot,PBX 0138E11 mRNA,7.56
same,Normalized by Landmarks (0.25),PBX 0138H03 mRNA,1.44
same,Normalized by all Data Points (0.469),PBX 0138H03 mRNA,2.70
same,Ratio of Medians (Cy5/Cy3) First Spot,PBX 0138H03 mRNA,6.36
same,Ratio of Medians (Cy5/Cy3) Mean,PBX 0138H03 mRNA,5.75 ± 0.61 ^a
same,Ratio of Medians (Cy5/Cy3) Second Spot,PBX 0138H03 mRNA,5.14
same,Cy3/Cy5 by Landmarks (0.25),PBX0139G06 mRNA,3.77
same,Cy3/Cy5 by all Data Points (0.469),PBX0139G06 mRNA,2.01
same,Normalized by Landmarks (0.25),PBX0139G06 mRNA,0.265
same,Normalized by all Data Points (0.469),PBX0139G06 mRNA,0.497
same,Ratio of Medians (Cy5/Cy3) First Spot,PBX0139G06 mRNA,1.06
